# Patent US7087623B2, “Thiazole and other heterocyclic ligands for mammalian dopamine, muscarinic and serotonin receptors and transporters, and methods of use thereof” (Sepracor Inc., priority 2001, dated 2006)
# Where two headings read alike, the source gives them in different places.
# Experiments:
# [1] = target: T1, human serotonin 5-HT2A receptor (Homo sapiens, UniProt P28223); experiment: Radioligand binding assay, human 5-HT2A receptors ([3H]Ketanserin)
# T1 construct: expressed in transfected cells; host or cells: CHO-K1
# T1 sequence (P28223 whole entry): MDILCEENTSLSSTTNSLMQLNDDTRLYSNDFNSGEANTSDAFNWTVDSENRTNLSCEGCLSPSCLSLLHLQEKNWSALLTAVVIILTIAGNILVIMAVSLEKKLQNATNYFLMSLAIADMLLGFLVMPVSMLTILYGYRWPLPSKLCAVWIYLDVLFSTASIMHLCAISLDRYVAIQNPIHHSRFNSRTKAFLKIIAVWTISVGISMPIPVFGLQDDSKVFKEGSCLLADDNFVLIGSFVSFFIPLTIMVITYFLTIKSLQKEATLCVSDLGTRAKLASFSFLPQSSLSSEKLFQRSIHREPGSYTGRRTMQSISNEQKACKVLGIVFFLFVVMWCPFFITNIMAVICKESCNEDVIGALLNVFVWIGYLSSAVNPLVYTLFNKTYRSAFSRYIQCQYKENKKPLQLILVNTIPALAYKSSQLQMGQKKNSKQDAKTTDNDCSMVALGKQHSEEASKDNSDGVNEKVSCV
# Description: (§1) The human 5-HT2a and 5-HT2b screens were conducted according to Bonhaus, D. W. et al. Br. J. Pharmacol. 1995, 115, 622. The human 5-HT2c screen was conducted according to Wolf, W. A. et al. J. Neurochem. 1997, 69, 1449. The human 5-HT6 screen was conducted according to Monsma, F. J. et al. Mol. Pharmacol. 1993, 43, 320.
# CHO-K1 cells stably transfected with a plasmid encoding the human serotonin 5-HT2A receptor were used to prepare membranes in modified Tris-HCl pH 7.7 buffer using standard techniques. […] Non-specific binding was estimated in the presence of 1 μM mianserin. […] See Bonhaus, D. W. et al. “The pharmacology and distribution of human 5-hydroxytryptamine2B (5-HT2B) receptor gene products: comparison with 5-HT2A and 5-HT2C receptors” Brit. J. Pharmacol. 115: 622–628, 1995; and Saucier, C and Albert, P. R. “Identification of an endogenous 5-hydroxytryptamine2A receptor in NIH-3T3 cells: agonist-induced down-regulation involves decreases in receptor RNA and number” J. Neurochem. 68: 1998–2011, 1997.
# (§2) The human 5-HT2a and 5-HT2b screens were conducted according to Bonhaus, D. W. et al. Br. J. Pharmacol. 1995, 115, 622. The human […], W. A. et al. J. Neurochem. 1997, 69, 1449. The human 5-HT6 screen was conducted according to Monsama, F. J. et al. Mol. Pharmacol. 1993, 43, 320. The assay to human D3 receptors was conducted according to Sokoloff, P. et al. Nature 1990, 347;146. The human dopamine transporter assay was conducted according to Gu, H. et. al. J. Biol. Chem. 1994, 269 (10);7124; and Giros, B. et al. Trends. Pharmacol. Sci. 1993, 14: 43. The human muscarinic M1–M4 screens were conducted according to Buckley N. J. et al. Mol. Pharmacol. 1989, 35:469.
# [2] = target: T2, human serotonin 5-HT2B receptor (Homo sapiens, UniProt P41595); experiment: Radioligand binding assay, human 5-HT2B receptors ([3H]LSD)
# T2 construct: expressed in transfected cells; host or cells: CHO-K1
# T2 sequence (P41595 whole entry): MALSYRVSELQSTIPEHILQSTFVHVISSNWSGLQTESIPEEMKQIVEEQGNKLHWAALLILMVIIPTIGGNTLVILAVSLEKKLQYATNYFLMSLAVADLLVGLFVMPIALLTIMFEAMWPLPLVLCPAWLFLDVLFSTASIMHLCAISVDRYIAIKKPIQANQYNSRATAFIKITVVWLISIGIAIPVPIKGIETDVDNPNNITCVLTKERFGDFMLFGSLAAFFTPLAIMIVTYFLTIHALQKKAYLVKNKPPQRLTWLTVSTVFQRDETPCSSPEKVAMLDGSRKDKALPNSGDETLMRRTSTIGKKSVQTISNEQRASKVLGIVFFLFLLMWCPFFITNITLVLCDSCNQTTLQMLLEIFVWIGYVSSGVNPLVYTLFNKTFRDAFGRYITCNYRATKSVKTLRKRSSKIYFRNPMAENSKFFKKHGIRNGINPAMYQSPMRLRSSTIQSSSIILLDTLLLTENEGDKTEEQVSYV
# Description: This assay measures binding of [^3H]LSD to human serotonin 5-HT2B receptors. CHO-K1 cells stably transfected with a plasmid encoding the human serotonin 5-HT2B receptor were used to prepare membranes in modified Tris-HCl pH 7.4 buffer using standard techniques. […] Non-specific binding was estimated in the presence of 10 μM serotonin. Membranes were filtered and washed 3 times and the filters were counted to determine [^3H]LSD specifically bound. See Bonhaus, D. W. et al. “The pharmacology and distribution of human 5-hydroxytryptamine2B (5-HT2B) receptor gene products: comparison with 5-HT2A and 5-HT2C receptors” Brit.
# The human 5-HT2b screen was conducted according to Wolf, W. A. et al. J. Neurochem.
# [3] = target: T3, human serotonin 5-HT2C receptor (Homo sapiens, UniProt P28335); experiment: Radioligand binding assay, human 5-HT2C receptors ([3H]Mesulergine)
# T3 construct: expressed in transfected cells; host or cells: CHO-K1
# T3 sequence (P28335 33-458): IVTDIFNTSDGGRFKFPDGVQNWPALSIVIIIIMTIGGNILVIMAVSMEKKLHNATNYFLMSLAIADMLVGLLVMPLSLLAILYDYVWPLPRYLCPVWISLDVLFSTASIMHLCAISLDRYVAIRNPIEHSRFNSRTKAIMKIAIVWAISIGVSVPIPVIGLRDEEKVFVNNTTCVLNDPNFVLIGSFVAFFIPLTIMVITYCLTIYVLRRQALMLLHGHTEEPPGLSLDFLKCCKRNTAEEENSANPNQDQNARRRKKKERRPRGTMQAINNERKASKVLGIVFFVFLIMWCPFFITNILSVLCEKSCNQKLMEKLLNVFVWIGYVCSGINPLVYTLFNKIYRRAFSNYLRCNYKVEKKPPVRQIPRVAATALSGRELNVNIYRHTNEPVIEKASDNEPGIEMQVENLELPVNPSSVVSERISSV
# Description: as §1
# CHO-K1 cells stably transfected with a plasmid encoding the human serotonin 5-HT2C receptor were used to prepare membranes in modified Tris-HCl pH 7.7 buffer using standard techniques. […] Non-specific binding was estimated in the presence of 1 μM mianserin. […] See Wolf, W. A. and Schutz, J. S. “The serotonin 5-HT2C receptor is a prominent serotonin receptor in basal ganglia: evidence from functional studies on serotonin-mediated phosphoinositide hydrolysis” J. Neurochem. 69: 1449–1458, 1997.
# as §2
# [4] = target: T4, human serotonin 5-HT6 receptor (Homo sapiens, UniProt P50406); experiment: Radioligand binding assay, human 5-HT6 receptors ([3H]LSD); conditions: read-out: IC50 (nM) 5-HT6
# T4 construct: expressed in transfected cells; host or cells: HeLa/E6-7
# T4 sequence (P50406 whole entry): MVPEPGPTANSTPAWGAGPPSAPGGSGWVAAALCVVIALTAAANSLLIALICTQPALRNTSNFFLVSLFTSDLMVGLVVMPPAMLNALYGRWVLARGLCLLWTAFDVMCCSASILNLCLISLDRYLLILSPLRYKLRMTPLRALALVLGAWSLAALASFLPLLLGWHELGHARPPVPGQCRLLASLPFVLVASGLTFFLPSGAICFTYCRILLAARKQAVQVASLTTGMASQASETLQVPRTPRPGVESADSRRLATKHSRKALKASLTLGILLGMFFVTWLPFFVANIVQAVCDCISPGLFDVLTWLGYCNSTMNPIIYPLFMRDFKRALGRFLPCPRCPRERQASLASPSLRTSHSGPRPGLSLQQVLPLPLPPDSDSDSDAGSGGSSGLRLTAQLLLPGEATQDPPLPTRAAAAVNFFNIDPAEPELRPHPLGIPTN
# Description: as §1
# This assay measures binding of [^3H]LSD (lysergic acid diethylamide) to human serotonin 5-HT6 receptors. HeLa/E6–7 cells stably transfected with a plasmid encoding the human serotonin 5-HT6 receptor were used to prepare membranes in modified Tris-HCl pH 7.4 buffer using standard techniques. A 30 μg aliquot of membrane was incubated with 1.5 nM [^3H]LSD for 120 minutes at 37° C. Non-specific binding was estimated in the presence of 5 μM 5-HT. Membranes were filtered and washed 3 times and the filters were counted to determine [^3H]LSD specifically bound. See Monsma, Jr., F. J. et al. “Cloning and expression of a novel serotonin receptor with high affinity for tricyclic psychotropic drugs” Mol. Pharmacol. 43: 320–327, 1993.
# as §2
# [5] = target: T5, human dopamine D3 receptor (Homo sapiens, UniProt P35462); experiment: Radioligand binding assay, human dopamine D3 receptors ([3H]Spiperone)
# T5 construct: expressed in transfected cells; host or cells: CHO
# T5 sequence (P35462 whole entry): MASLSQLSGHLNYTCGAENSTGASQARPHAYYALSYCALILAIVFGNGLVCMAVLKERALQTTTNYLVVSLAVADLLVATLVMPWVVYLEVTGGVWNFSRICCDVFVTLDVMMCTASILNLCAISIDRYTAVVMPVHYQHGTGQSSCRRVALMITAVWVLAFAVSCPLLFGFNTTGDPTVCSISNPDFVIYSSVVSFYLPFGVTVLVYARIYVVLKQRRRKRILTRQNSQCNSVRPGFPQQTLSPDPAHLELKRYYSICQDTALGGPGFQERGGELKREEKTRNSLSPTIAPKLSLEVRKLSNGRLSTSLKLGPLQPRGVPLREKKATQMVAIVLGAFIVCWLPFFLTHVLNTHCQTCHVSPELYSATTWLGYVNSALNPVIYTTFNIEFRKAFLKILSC
# Description: The assay for binding to human D3 receptors was conducted according to Sokoloff, P. et al. Nature 1990, 347, 146.
# CHO cells stably transfected with a plasmid encoding the human dopamine D3 receptor were used to prepare membranes in modified Tris-HCl pH 7.4 buffer using standard techniques. […] Non-specific binding was estimated in the presence of 25 μM S-(−)-sulpiride. […] See Sokoloff, P. et al. “Molecular cloning and characterization of a novel dopamine receptor (D3) as a target for neuroleptics” Nature 347: 146–151, 1990.
# as §2
# [6] = target: T6, human dopamine transporter (Homo sapiens, UniProt Q01959); experiment: Binding to human dopamine transporter ([125I]RTI-55); conditions: human; Example 100 table; read-out: IC50 (nM) DAT
# T6 construct: expressed in transfected cells; host or cells: CHO-K1
# T6 sequence (Q01959 whole entry): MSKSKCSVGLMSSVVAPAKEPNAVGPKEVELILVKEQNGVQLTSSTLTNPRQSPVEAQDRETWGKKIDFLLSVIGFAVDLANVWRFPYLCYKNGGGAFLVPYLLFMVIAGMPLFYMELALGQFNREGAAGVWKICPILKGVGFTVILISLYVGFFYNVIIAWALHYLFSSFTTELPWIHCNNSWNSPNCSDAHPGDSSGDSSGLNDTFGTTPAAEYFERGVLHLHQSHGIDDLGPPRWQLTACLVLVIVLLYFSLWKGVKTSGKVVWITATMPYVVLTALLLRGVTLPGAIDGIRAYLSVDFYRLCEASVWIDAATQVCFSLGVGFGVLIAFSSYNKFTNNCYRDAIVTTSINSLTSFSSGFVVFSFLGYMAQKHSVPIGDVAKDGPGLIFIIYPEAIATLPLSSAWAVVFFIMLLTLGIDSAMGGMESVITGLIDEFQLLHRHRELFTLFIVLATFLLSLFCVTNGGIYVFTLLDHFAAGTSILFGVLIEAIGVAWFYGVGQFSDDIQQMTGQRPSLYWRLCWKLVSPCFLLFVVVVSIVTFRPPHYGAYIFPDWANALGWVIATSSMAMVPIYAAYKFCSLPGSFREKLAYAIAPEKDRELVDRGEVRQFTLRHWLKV
# Description: CHO-K1 cell membranes stably transfected with a plasmid encoding the human dopamine transporter were prepared in modified Tris-HCl pH 7.4 buffer using standard techniques. […] Non-specific binding was estimated in the presence of 10 μM nomifensine. […] Trends. […]
# [7] = human 5-HT2a, Example 16 table, read-out: IC50 (nM) 5-HT2a
# [8] = human 5-HT2b, Example 16 table, read-out: IC50 (nM) 5-HT2b
# [9] = human 5-HT2c, Example 16 table, read-out: IC50 (nM) 5-HT2c
# [10] = Example 20 table, read-out: IC50 (nM) Against Human D3 Receptors
# [11] = human, Example 100 table, read-out: IC50 (nM) D3
# [12] = human, Example 100 table, read-out: IC50 (nM) 5-HT2A
# [13] = human, Example 100 table, read-out: IC50 (nM) 5-HT2B
# [14] = human, Example 100 table, read-out: IC50 (nM) 5-HT2C
Structure (SMILES),"IC50 ([4]; human, Example 100 table) [nM]","IC50 [5, 11] [nM]",IC50 [6] [nM],"IC50 [1, 7] [nM]","IC50 [2, 8] [nM]","IC50 [3, 9] [nM]","IC50 ([4]; human 5-HT6, Example 16 table) [nM]","IC50 [5, 10] [nM]","IC50 [1, 12] [nM]","IC50 [2, 13] [nM]","IC50 [3, 14] [nM]"
Clc1cccc(C2(c3csc(C4CCNCC4)n3)CCOCC2)c1 [Compound 68],,,,> 1000,> 1000,> 1000,< 1000,> 1000,,,
CN1CCC(c2nc(C3(c4cccc(Cl)c4)CCOCC3)cs2)CC1 [Compound 69],,,,> 1000,> 1000,> 1000,< 1000,> 1000,,,
CC(C)N1CCN(c2nc(C3(c4ccc(Cl)cc4)CCCCC3)cs2)CC1 [Compound 78],,,,> 1000,< 1000,> 1000,> 1000,< 1000,,,
CC(C)N1CCN(c2nc(C3(c4ccc(F)cc4)CCCCC3)cs2)CC1 [Compound 80],,,,> 1000,< 1000,< 1000,> 1000,< 1000,,,
CN1CCN(c2nc(C3(c4ccc(F)cc4)CCCCC3)cs2)CC1 [Compound 81],,,,> 1000,< 100,< 1000,< 1000,< 1000,,,
Cc1c(-c2csc(N3CCN(C)CC3)n2)sc2ccc(Cl)cc12 [Compound 113],> 1000,> 1000,,,,,,,< 1000,> 1000,< 1000
CN1CCC(N(C)c2nc(C3(c4ccc(Cl)cc4)CCCC3)cs2)C1 (centres unmarked) [Compound 116],< 10,> 1000,< 1000,,,,,,,,

# Now from value to compound, other results behind:
"IC50 ([4]; human, Example 100 table) [nM]","IC50 [5, 11] [nM]",IC50 [6] [nM],Structure (SMILES),"IC50 [1, 7] [nM]","IC50 [2, 8] [nM]","IC50 [3, 9] [nM]","IC50 ([4]; human 5-HT6, Example 16 table) [nM]","IC50 [5, 10] [nM]","IC50 [1, 12] [nM]","IC50 [2, 13] [nM]","IC50 [3, 14] [nM]"
< 1000,> 1000,< 1000,Clc1ccc(C2(c3csc(NCCN4CCOCC4)n3)CCCC2)cc1 [Compound 99],,,,,,,,
< 1000,< 1000,> 1000,CN1CCCC1CCNc1nc(C2(c3ccccc3F)CCCC2)cs1 (centres unmarked) [Compound 111],,,,,,,,
< 100,> 1000,> 1000,Fc1ccccc1C1(c2csc(N3CCNCC3)n2)CCCC1 [Compound 121],,,,,,,,
< 1000,< 1000,< 1000,Fc1ccccc1C1(c2csc(N3CCN(CC4CC4)CC3)n2)CCCC1 [Compound 122],,,,,,,,
< 100,< 1000,,CN1CCCN(c2nc(C3(c4ccccc4F)CCCC3)cs2)CC1 [Compound 139],,,,,,< 1000,< 100,< 100
